EC50 and Activity data for six molecules are collected here from ChEMBL document CHEMBL5532661, “Discovery of a Novel Glucagon-like Peptide-1 (GLP-1) Analogue from Bullfrog and Investigation of Its Potential for Designing GLP-1-Based Multiagonists” (J Med Chem, 2024).

What is called EC50 is the concentration that produces a half-maximal response.

Holding throughout (type): functional, cell-based
The target in test [1] is T1, Glucagon-like peptide 1 receptor (Homo sapiens, UniProt P43220). Description: Agonist activity at human GLP-1 receptor expressed in HEK293 cells assessed as cAMP level measured after 60 mins by HTRF based assay.
T1 sequence (P43220 whole entry): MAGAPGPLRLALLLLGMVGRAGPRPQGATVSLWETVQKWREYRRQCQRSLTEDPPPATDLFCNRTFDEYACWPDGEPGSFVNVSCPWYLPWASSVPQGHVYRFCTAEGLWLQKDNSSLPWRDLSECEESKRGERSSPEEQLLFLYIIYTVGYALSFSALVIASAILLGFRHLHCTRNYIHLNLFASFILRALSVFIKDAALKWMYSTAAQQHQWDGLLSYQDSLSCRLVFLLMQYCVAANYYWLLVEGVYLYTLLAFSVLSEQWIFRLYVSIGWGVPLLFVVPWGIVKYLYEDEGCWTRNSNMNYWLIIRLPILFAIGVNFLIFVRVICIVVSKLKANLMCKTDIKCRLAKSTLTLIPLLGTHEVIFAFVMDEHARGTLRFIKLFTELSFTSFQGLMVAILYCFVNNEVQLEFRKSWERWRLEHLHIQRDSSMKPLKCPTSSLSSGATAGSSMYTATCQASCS
Test [2] has as its target T1, Glucagon-like peptide 1 receptor. Description: Agonist activity at human GLP-1 receptor expressed in HEK293 cells assessed as cAMP level by measuring relative percent (GLP-1 EC50/compound EC50) measured after 60 mins by HTRF based assay relative to GLP-1. As to conditions: filed as agonist.
The target of test [3] is T2, Glucagon receptor (Homo sapiens, UniProt P47871). Description: Agonist activity at human GCGR expressed in HEK293 cells assessed as cAMP level measured after 60 mins by HTRF based assay.
T2 sequence (P47871 whole entry): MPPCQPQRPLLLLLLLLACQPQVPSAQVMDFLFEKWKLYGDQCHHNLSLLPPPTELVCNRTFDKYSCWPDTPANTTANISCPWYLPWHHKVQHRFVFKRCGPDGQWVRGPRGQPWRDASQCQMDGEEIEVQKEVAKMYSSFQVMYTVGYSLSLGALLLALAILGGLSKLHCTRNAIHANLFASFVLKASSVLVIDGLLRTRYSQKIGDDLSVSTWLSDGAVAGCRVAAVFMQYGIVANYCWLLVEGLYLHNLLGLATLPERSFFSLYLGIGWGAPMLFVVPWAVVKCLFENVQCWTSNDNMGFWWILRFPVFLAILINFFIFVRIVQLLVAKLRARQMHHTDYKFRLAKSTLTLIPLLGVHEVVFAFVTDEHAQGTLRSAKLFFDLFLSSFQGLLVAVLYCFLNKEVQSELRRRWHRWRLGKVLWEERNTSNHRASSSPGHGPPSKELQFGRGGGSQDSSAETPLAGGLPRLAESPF
The target of test [4] is T2, Glucagon receptor. Description: Agonist activity at human GCGR expressed in HEK293 cells assessed as cAMP level by measuring relative percent (glucagon EC50/compound EC50) measured after 60 mins by HTRF based assay relative to glucagon. For orientation: Cyclic AMP is a second messenger, typically raised through Gs and lowered through Gi signalling.
In test [5] the target is T3, Gastric inhibitory polypeptide receptor (Homo sapiens, UniProt P48546).
T3 sequence (P48546 whole entry): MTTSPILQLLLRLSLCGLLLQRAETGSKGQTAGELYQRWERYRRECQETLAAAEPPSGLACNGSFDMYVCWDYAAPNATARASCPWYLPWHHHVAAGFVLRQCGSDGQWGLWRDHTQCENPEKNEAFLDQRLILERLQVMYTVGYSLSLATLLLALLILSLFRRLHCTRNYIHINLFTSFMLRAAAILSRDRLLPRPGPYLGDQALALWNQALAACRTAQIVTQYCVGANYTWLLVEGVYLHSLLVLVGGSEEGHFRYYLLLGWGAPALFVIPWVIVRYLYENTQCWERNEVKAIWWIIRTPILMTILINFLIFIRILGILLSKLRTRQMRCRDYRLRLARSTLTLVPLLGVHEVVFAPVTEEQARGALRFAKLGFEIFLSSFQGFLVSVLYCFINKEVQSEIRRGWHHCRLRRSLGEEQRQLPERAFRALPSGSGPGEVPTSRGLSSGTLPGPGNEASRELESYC
Description: Agonist activity at human GIPR receptor expressed in HEK293 cells assessed as cAMP level measured after 60 mins by HTRF based assay.

Test [6] deals with T4, Gastric inhibitory polypeptide receptor (Homo sapiens) (UniProt P48546).
T4 sequence (whole entry): T3 sequence (P48546 whole entry)
Description: Agonist activity at human GIPR receptor expressed in HEK293 cells assessed as cAMP level by measuring relative percent (GIP EC50/compound EC50) measured after 60 mins by HTRF based assay relative to GIP.

Numbered stars: 1 amine (or outer) side, 2 acyl side, 3 side chain; on linkers, the order of the positions; unused ones are H or OH. Square brackets hold non-standard residues; d marks the D form. Side chains are listed from the residue outwards. Peptide text beside a SMILES is read from it. * marks the point of attachment. C20 diacid = O=C(O)CCCCCCCCCCCCCCCCCCC(=O)*; C18 diacid = O=C(O)CCCCCCCCCCCCCCCCC(=O)*; γGlu = O=C(O)[C@H](CCC(=O)[*:2])N[*:1]; Palmitoyl = CCCCCCCCCCCCCCCC(=O)*; AEEA = NCCOCCOCC(=O)O; Aib = CC(C)(N)C(=O)O

`CC[C@H](C)[C@H](NC(=O)[C@H](CCCCNC(=O)COCCOCCNC(=O)COCCOCCNC(=O)CC[C@H](NC(=O)CCCCCCCCCCCCCCCCCCC(=O)O)C(=O)O)NC(=O)[C@H](CCC(=O)O)NC(=O)[C@H](CCSC)NC(=O)[C@H](C)NC(=O)[C@H](CCCNC(=N)N)NC(=O)[C@H](CO)NC(=O)[C@H](CCSC)NC(=O)[C@H](CC(=O)O)NC(=O)[C@H](CO)NC(=O)[C@@H](NC(=O)[C@H](Cc1ccccc1)NC(=O)[C@@H](NC(=O)CNC(=O)[C@H](CCC(N)=O)NC(=O)C(C)(C)NC(=O)[C@@H](N)Cc1c[nH]cn1)[C@@H](C)O)[C@@H](C)O)C(=O)N[C@@H](C)C(=O)N[C@H](C(=O)N[C@@H](CCCNC(=N)N)C(=O)N[C@@H](CC(C)C)C(=O)N[C@@H](Cc1ccccc1)C(=O)N[C@H](C(=O)N[C@@H](CC(=O)O)C(=O)N[C@@H](Cc1c[nH]c2ccccc12)C(=O)N[C@@H](CC(C)C)C(=O)N[C@H](C(=O)N[C@@H](CCC(=O)O)C(=O)NCC(=O)NCC(=O)N1CCC[C@H]1C(=O)N[C@@H](CO)C(=O)N[C@@H](CO)C(=O)NCC(=O)N[C@@H](C)C(=O)N1CCC[C@H]1C(=O)N1CCC[C@H]1C(=O)N1CCC[C@H]1C(=O)N[C@@H](CO)C(N)=O)[C@@H](C)CC)C(C)C)C(C)C` (H-H[Aib]QGTFTSDMSRAMEK([AEEA-AEEA-γGlu-C20 diacid])IAVRLFVDWLIEGGPSSGAPPPS-NH2): the 50% effective concentration (EC50) was determined as 0.02 nM in test [1], 0.8 nM on Glucagon receptor [3] and 0.89 nM in test [5]. In addition, the Activity in test [2] was 265%; on Glucagon receptor [4] it was 12%; in test [6], 3%.
For the molecule `CC[C@H](C)[C@H](NC(=O)[C@H](CCCCNC(=O)COCCOCCNC(=O)COCCOCCNC(=O)CC[C@H](NC(=O)CCCCCCCCCCCCCCCCC(=O)O)C(=O)O)NC(=O)[C@H](CCC(=O)O)NC(=O)[C@H](CCSC)NC(=O)[C@H](C)NC(=O)[C@H](CCCNC(=N)N)NC(=O)[C@H](CO)NC(=O)[C@H](CCSC)NC(=O)[C@H](CC(=O)O)NC(=O)[C@H](CO)NC(=O)[C@@H](NC(=O)[C@H](Cc1ccccc1)NC(=O)[C@@H](NC(=O)CNC(=O)[C@H](CCC(N)=O)NC(=O)C(C)(C)NC(=O)[C@@H](N)Cc1c[nH]cn1)[C@@H](C)O)[C@@H](C)O)C(=O)N[C@@H](C)C(=O)N[C@H](C(=O)N[C@@H](CCCNC(=N)N)C(=O)N[C@@H](CC(C)C)C(=O)N[C@@H](Cc1ccccc1)C(=O)N[C@H](C(=O)N[C@@H](CC(=O)O)C(=O)N[C@@H](Cc1c[nH]c2ccccc12)C(=O)N[C@@H](CC(C)C)C(=O)N[C@H](C(=O)N[C@@H](CCC(=O)O)C(=O)NCC(=O)NCC(=O)N1CCC[C@H]1C(=O)N[C@@H](CO)C(=O)N[C@@H](CO)C(=O)NCC(=O)N[C@@H](C)C(=O)N1CCC[C@H]1C(=O)N1CCC[C@H]1C(=O)N1CCC[C@H]1C(=O)N[C@@H](CO)C(N)=O)[C@@H](C)CC)C(C)C)C(C)C` (H-H[Aib]QGTFTSDMSRAMEK([AEEA-AEEA-γGlu-C18 diacid])IAVRLFVDWLIEGGPSSGAPPPS-NH2), the EC50 in test [1] worked out at 0.019 nM; at Glucagon receptor [3] it was 0.61 nM; in test [5] it was 0.83 nM. Further, the Activity in test [2] was determined as 279%; on Glucagon receptor [4], 15%; in test [6], 3%.
Turning to `CC[C@H](C)[C@H](NC(=O)[C@H](CCCCNC(=O)COCCOCCNC(=O)COCCOCCNC(=O)CC[C@H](NC(=O)CCCCCCCCCCCCCCCCC(=O)O)C(=O)O)NC(=O)[C@H](CCC(=O)O)NC(=O)[C@H](CCSC)NC(=O)[C@H](C)NC(=O)[C@H](CCCNC(=N)N)NC(=O)[C@H](CO)NC(=O)[C@H](CC(C)C)NC(=O)[C@H](CC(=O)O)NC(=O)[C@H](CO)NC(=O)[C@@H](NC(=O)[C@H](Cc1ccccc1)NC(=O)[C@@H](NC(=O)CNC(=O)[C@H](CCC(N)=O)NC(=O)C(C)(C)NC(=O)[C@@H](N)Cc1c[nH]cn1)[C@@H](C)O)[C@@H](C)O)C(=O)N[C@@H](C)C(=O)N[C@H](C(=O)N[C@@H](CCCNC(=N)N)C(=O)N[C@@H](CC(C)C)C(=O)N[C@@H](Cc1ccccc1)C(=O)N[C@H](C(=O)N[C@@H](CCC(=O)O)C(=O)N[C@@H](Cc1c[nH]c2ccccc12)C(=O)N[C@@H](CC(C)C)C(=O)N[C@H](C(=O)N[C@@H](CCC(=O)O)C(=O)NCC(=O)NCC(=O)N1CCC[C@H]1C(=O)N[C@@H](CO)C(=O)N[C@@H](CO)C(=O)NCC(=O)N[C@@H](C)C(=O)N1CCC[C@H]1C(=O)N1CCC[C@H]1C(=O)N1CCC[C@H]1C(=O)N[C@@H](CO)C(N)=O)[C@@H](C)CC)[C@@H](C)CC)C(C)C` (H-H[Aib]QGTFTSDLSRAMEK([AEEA-AEEA-γGlu-C18 diacid])IAVRLFIEWLIEGGPSSGAPPPS-NH2), the EC50 in test [1] turned out to be 0.03 nM; on Glucagon receptor [3], 2.6 nM; in test [5], 0.99 nM. Besides, the results for the Activity (in test [2]; on Glucagon receptor [4]; in test [6]) were 177%, 4% and 3%, respectively.
For “H-HSQGTFTSDMSSYLDSRRAQDFVDWLKNGGPSSGAPPPS-NH2”, the EC50 in test [1] amounted to 0.061 nM; at Glucagon receptor [3], 0.15 nM. Besides, the Activity in test [2] amounted to 87%; at Glucagon receptor [4] (filed as agonist), 61%.
`CCCCCCCCCCCCCCCC(=O)N[C@@H](CCC(=O)NCCCC[C@H](NC(=O)[C@H](CO)NC(=O)[C@@H]1CCCN1C(=O)[C@@H]1CCCN1C(=O)[C@@H]1CCCN1C(=O)[C@H](C)NC(=O)CNC(=O)[C@H](CO)NC(=O)[C@H](CO)NC(=O)[C@@H]1CCCN1C(=O)CNC(=O)CNC(=O)[C@H](CC(N)=O)NC(=O)[C@H](CCCCN)NC(=O)[C@H](CC(C)C)NC(=O)[C@H](Cc1c[nH]c2ccccc12)NC(=O)[C@H](CC(=O)O)NC(=O)[C@@H](NC(=O)[C@H](Cc1ccccc1)NC(=O)[C@H](CC(=O)O)NC(=O)[C@H](CCC(N)=O)NC(=O)[C@H](C)NC(=O)[C@H](CCCNC(=N)N)NC(=O)[C@H](CCCNC(=N)N)NC(=O)[C@H](CO)NC(=O)[C@H](CC(=O)O)NC(=O)[C@H](CC(C)C)NC(=O)[C@H](Cc1ccc(O)cc1)NC(=O)[C@H](CCCCN)NC(=O)[C@H](CO)NC(=O)[C@H](CCSC)NC(=O)[C@H](CC(=O)O)NC(=O)[C@H](CO)NC(=O)[C@@H](NC(=O)[C@H](Cc1ccccc1)NC(=O)[C@@H](NC(=O)CNC(=O)[C@H](CCC(N)=O)NC(=O)[C@H](CO)NC(=O)[C@@H](N)Cc1c[nH]cn1)[C@@H](C)O)[C@@H](C)O)C(C)C)C(N)=O)C(=O)O` (H-HSQGTFTSDMSKYLDSRRAQDFVDWLKNGGPSSGAPPPSK([γGlu-Palmitoyl])-NH2): the half-maximal effective concentration (EC50) in test [1] was determined as 0.068 nM; at Glucagon receptor [3] it was 0.53 nM. In addition, the Activity in test [2] came out at 78%; at Glucagon receptor [4], 17%.
Consider “H-HSQGTFTSDMSKYLDSRRAQDFVDWLIKGRNRNNIA-NH2”, for which the EC50 amounted to 0.091 nM in test [1] and 0.18 nM at Glucagon receptor [3]. The Activity in test [2] was 58%; on Glucagon receptor [4] (filed as agonist) it was 51%.
